Results taken from a compilation of properties of binary mixtures (doi:10.1016/j.molliq.2020.114720).

Assay: xn = mol fraction of the nth substance listed
Details: 101 kPa

CC(=O)[O-].CCCCC[n+]1ccccc1 + O
electrical conductivity [S/m]
Details | x1 = 0.9143 | x1 = 0.9163 | x1 = 0.9314 | x1 = 0.948 | x1 = 0.9673 | x2 = 0.0023
293.15 K | 0.0061 | – | – | 0.0049 | 0.0043 | 0.0034
298.15 K | 0.0106 | – | 0.0094 | – | 0.007 | 0.0053
303.15 K | 0.0175 | 0.0173 | – | 0.0128 | 0.0112 | 0.0081
308.15 K | 0.024 | – | – | 0.0185 | 0.0162 | 0.0121
313.15 K | 0.036 | – | 0.0335 | 0.029 | 0.0245 | 0.0179
318.15 K | 0.051 | – | 0.0438 | – | – | 0.0266
323.15 K | 0.071 | – | 0.0623 | 0.0532 | 0.0459 | –
328.15 K | 0.093 | 0.092 | – | 0.0715 | 0.061 | 0.045
333.15 K | – | 0.125 | 0.111 | 0.095 | 0.0805 | 0.0572
338.15 K | – | 0.171 | 0.151 | – | 0.109 | 0.0766
343.15 K | 0.226 | 0.222 | – | 0.17 | 0.138 | 0.0955
